System: GluN2A NMDARs
Test: NMDAR EPSC in brain slices of wild-type and GluN2A knockout mice
Design: species or system mouse
Settings: FIG. 20
Experimental: Male and female wild-type or GluN2A KO mice 20-25-day old were anesthetized using Isoflurane and rapidly decapitated. Brains were removed and immersed for 30 sec in cold (2-4° C.) cutting solution containing: 92 mM NMDG, 2.5 mM KCl, 1.25 mM NaH2PO4, 30 mM NaHCO3, 20 mM HEPES, 4.5 mM D-glucose, 5 mM Na-ascorbate, 3 mM Na-pyruvate, 0.5 mM CaCl2, and 10 mM MgCl2. The brain was blocked in melted 3% agar-A (CAS #9002-18-0, Bio Basic Canada Inc.), then glued onto the slicing platform and sectioned coronally at 320 μm thickness with a vibratome (Leica VT 1000S) containing cold (2-4° C.) bubbled (95% O2/5% CO2) cutting solution. Sections that included the prefrontal cortex were transferred into continuously carbogenated pre-warmed (32-34° C.) cutting solution for a period of 12 min time for initial recovery. […]
A brain slice was transferred onto a recording chamber on an upright Nikon FN1 microscope and the chamber was continuously perfused with 32° C. carbogenated aCSF recording solution containing: 121.85 mM NaCl, 2.5 mM KCl, 1.2 mM NaH2PO4, 24 mM NaHCO3, 12.5 mM D-glucose, 5 mM Na-ascorbate, 3 mM Na-pyruvate, 2 mM CaCl2, 0.1 mM MgCl2. Pyramidal neurons were identified in layer V of the prefrontal cortex via video monitored infra-red differential interference contrast illumination microscopy using a CFI APO 40× W NIR objective (0.80 numerical aperture, 3.5 mm working distance). […]

With `CCOc1cc(Cl)c(Cl)c(/C=N/NC(=O)c2ccccc2Br)c1O` [Npam43, (E)-2-bromo-N′-(2,3-dichloro-5-ethoxy-6-hydroxybenzylidene)benzohydrazide] the “Effect on NMDAR EPSC, GluN2A KO mice” value (brain slices of GluN2A KO mice) was “no effect” and the “Effect on NMDAR EPSC, WT mice” value (brain slices of wild-type mice) was “clear potentiation of NMDAR EPSC”.

Reference: patent US11166924B2, “N-methyl-d-aspartate receptor allosteric modulators and methods for their use” (Qingdao Primedicine Pharmaceutical Company, Ltd., priority 2016, dated 2021)
